The numbers were not newly measured in publication PMC10017685 (Nature Communications, 2023), which cites them from elsewhere.

The subject of the first data set is human erythrocytes. Further details: method as in DBAASP. Particulars: cited from earlier work.
On to IAGKIAKIAGKIAKIAGKIA [DBAASP_14993], for which the “Class (dedicated toxicity dataset used for toxicity classifier evaluation)” value (“Class” below) is given as 1.

With GLLKKLLKKLLKKL [DBAASP_13973], the “Class” value is reported as 1.

On to GILSSWLKKLKKIIAK [DBAASP_8912], for which the “Class” value was 0.

As for GIMSSLMKKLAAHIKK [DBAASP_8896], the “Class” value is 0.

With RRGCFRVCYRGFCFQRCR [DBAASP_12233], the “Class” value is 0.

With VKRWKKWRWKWKKWV [DBAASP_8775], the “Class” value is listed as 0.

Still in this data set, the particulars now being: toxicity class label 1 or 0, meaning of the labels not given; DBAASP HC50 data, human erythrocytes; ref DBAASP; cited from earlier work.
As to ILPWKWPWWPWRR [DBAASP_491], the “Class” value is 0.

For YLRLIRYMAKMI [DBAASP_17183], the “Class” value is reported as 0.

FFFLSRIF [DBAASP_3232]: the “Class” value is 0.

As for GLNAFKKVFQGIHEAIKLINNHVQ [DBAASP_6933], the “Class” value was 0.

On to FLPIVGRLISGIL [DBAASP_13347], for which the “Class” value is reported as 0.

Regarding FLKGIKGMLGKLL [DBAASP_9112], the “Class” value is on record as 0.

Take GIGKFLHSAKKFGKAFVGEIMNS [DBAASP_5368]: the “Class” value is on record as 0.

For LPFFLLSLIPSAISAIKKI [DBAASP_8437], the “Class” value is on record as 1.

In the case of WRWLRRIW [DBAASP_10631], the “Class” value is 0.

Consider ILKKLLSTAAGLLSNL [DBAASP_4360], for which the “Class” value is recorded as 0.

GLKKIFKKGLGSLVKGIAAHVAS [DBAASP_4410]: the “Class” value is 0.

Take GIWDTIKSMGKVFAGKIKQNL [DBAASP_702]: the “Class” value is listed as 0.

In the case of FLPFLLSALPKVFCFFSKKC [DBAASP_6702], the “Class” value is given as 1.

For the sequence RQYMRQIEQALRYGYRISRR [DBAASP_14411], the “Class” value is 0.

In the case of GMATKAGTALGKVAKAVIGAAL [DBAASP_2285], the “Class” value was 0.

Take SKVGRHLRRFGHRAHRKL [DBAASP_7663]: the “Class” value is listed as 0.

Regarding GLLGPLLKIAAKVGSKLL [DBAASP_4926], the “Class” value is listed as 0.

As to GWLDVAKKKGKAAFNVAKNFI [DBAASP_7674], the “Class” value is 0.

Consider ALYKTMLKKLGTMAL [DBAASP_10103], for which the “Class” value was 0.

In the case of GVVDILKGAAKDIAGHLASKVMNKL [DBAASP_4358], the “Class” value is listed as 0.

In the case of GIWKTIKSMGKVFAGKILQNL [DBAASP_699], the “Class” value is reported as 0.

As for HFLGTLVKLAKKIL [DBAASP_5021], the “Class” value is listed as 0.

As to FWGKLWEGVKNAI [DBAASP_3480], the “Class” value is recorded as 0.

In the case of CFKFKFKFGSGFKFKFKFC [DBAASP_352], the “Class” value is listed as 0.

Turning to GWKKWFTKGERLSQRHFA [DBAASP_1000], the “Class” value was 0.

Consider SYERKINRHFKTLKKNLKKK [DBAASP_13931], for which the “Class” value is 0.

For FLSLIPKAISAISALINHF [DBAASP_12628], the “Class” value is recorded as 1.

Take GMATKAGTAFGKAAKAIIGAAL [DBAASP_5720]: the “Class” value is on record as 0.

As to FLSSIGKILGNLL [DBAASP_3103], the “Class” value was 0.

With HWRRFWHR [DBAASP_12822], the “Class” value is reported as 0.

Turning to WIRRIKKWIRRVHK [DBAASP_10626], the “Class” value is 0.

On to FPVTFRFFKFFKG [DBAASP_9715], for which the “Class” value is 0.

“GLWSKIKDAAKTAGKAALGFVNEMV [DBAASP_14233]”: the “Class” value is listed as 0.

As for VKRWKKWWRKLKKSV [DBAASP_8773], the “Class” value is 0.

For the sequence HFLGTLVNLKKKIL [DBAASP_5024], the “Class” value is on record as 0.

Regarding GLLDLLKGAGKGLLTHLASQI [DBAASP_16389], the “Class” value was 0.

FLPAALAGIGGILGKLF [DBAASP_9469]: the “Class” value was 0.

As for GIFDVLKNLAKGVITSLAS [DBAASP_16392], the “Class” value is 0.

In the case of KLLKRIKKLL [DBAASP_3152], the “Class” value is on record as 0.

As to GFRDVLKGAAKAFVKTVAGHIAN [DBAASP_2304], the “Class” value was 0.

As for GIKEFAHSLGKFGKAFVGGILNQ [DBAASP_3817], the “Class” value is 0.

As to GLLDFFKGAGKELLTHLASQI [DBAASP_16390], the “Class” value is reported as 0.

Regarding VRRFAWWWAFLRR [DBAASP_5137], the “Class” value was 0.

With IPPFIKKVLTTVF [DBAASP_3483], the “Class” value is 0.

For IKKILSKIKKLL [DBAASP_10745], the “Class” value is 0.

Take GLFDIWKKLRWRR [DBAASP_10054]: the “Class” value is listed as 0.

On to GLLGPLLKIAAKVGSNLL [DBAASP_3157], for which the “Class” value is listed as 0.

Turning to RRWCVYAYVRVRGVRVYAYVCW [DBAASP_13506], the “Class” value is listed as 0.

As for FLGALFKVASKLVPAAICSISKKC [DBAASP_15602], the “Class” value is recorded as 0.

Regarding GLKKIFKAGLGSLVKGIKAHVAS [DBAASP_4414], the “Class” value is listed as 0.

Consider ALWKTMLKKLGTMAL [DBAASP_10095], for which the “Class” value is reported as 0.

With FLSLIPAAISAVSALANHF [DBAASP_10851], the “Class” value was 0.

As for FPVTWGWWKWWKG [DBAASP_9714], the “Class” value was 0.

Regarding FLPIVGRLISGLL [DBAASP_5287], the “Class” value is recorded as 0.

In the case of GILNTIKSIASKLKRKAK [DBAASP_5477], the “Class” value is recorded as 0.

On to ILPILGNLLNGLL [DBAASP_3402], for which the “Class” value is 0.

Take ILPILGNLLNSLL [DBAASP_3403]: the “Class” value is 0.

Turning to SKVLRHLRRFLHRAHRKL [DBAASP_7665], the “Class” value was 0.

For PFKIDIHLGGY [DBAASP_7635], the “Class” value was 0.

As to FLSLLPHIASGIASLVSKF [DBAASP_12382], the “Class” value is 1.

FLSLIPKIAGGIAALAKHL [DBAASP_10835]: the “Class” value is listed as 1.

Turning to VRRFPWWYPFLRR [DBAASP_14261], the “Class” value is listed as 0.

For the sequence FLIGMTQGLICLITRKC [DBAASP_1477], the “Class” value is recorded as 0.

In the case of IAKIAGKIAKIAGKIAKIAGKIA [DBAASP_14994], the “Class” value is given as 1.

Take GILGKLWEGVKSIF [DBAASP_8864]: the “Class” value is given as 0.

As for GLKGLLGKALKGIGKHIGKAQGC [DBAASP_6808], the “Class” value is listed as 0.

FLGALLKIGAKVLPSVLCGIFKKC [DBAASP_14203]: the “Class” value was 1.

With GIMISLMKKLAAHIAK [DBAASP_8898], the “Class” value is 0.

With GWRTLLKKAEVKTVGKLALKHYL [DBAASP_1409], the “Class” value was 0.

Turning to CVKVQVKVGSGVKVQVKVC [DBAASP_350], the “Class” value was 0.

Regarding FLSLIPKAISAISALANHF [DBAASP_12627], the “Class” value is given as 0.

Turning to KKVLKAAA [DBAASP_7361], the “Class” value was 0.

RPPQFTRAQWFAIQHISLN [DBAASP_6545]: the “Class” value is 1.

On to RIRFPWPWRWPWWPRFRG [DBAASP_8616], for which the “Class” value is recorded as 0.

As for KWKVFKKIEKMARNIRNKIVK [DBAASP_11864], the “Class” value is given as 0.

FLPILASLAAKFGPKLFSLVTKKS [DBAASP_4418]: the “Class” value was 0.

For the sequence IFGAIWPLALGALKNLIK [DBAASP_9405], the “Class” value is given as 1.

Consider KLALKLALKALKAALKLA [DBAASP_1030], for which the “Class” value is given as 1.

AKRHHGYKRKFH [DBAASP_732]: the “Class” value was 0.

Turning to FFHHIFRGIVHVGKTVHRLVTG [DBAASP_9008], the “Class” value is listed as 0.

For DIFGAIWPLALGALKNLIK [DBAASP_9407], the “Class” value is 1.

GVVDILKGAAKDLAGHLATKVMNKL [DBAASP_4357]: the “Class” value was 0.
